SMILES strings stand for the structures. Counter-ions that a name gives are not always drawn.

One series has as its target T1, human liver FBPase (Homo sapiens, UniProt P09467).
T1 construct: made in house; host or cells: E. coli BL21
T1 sequence (P09467 2-338 limits assumed): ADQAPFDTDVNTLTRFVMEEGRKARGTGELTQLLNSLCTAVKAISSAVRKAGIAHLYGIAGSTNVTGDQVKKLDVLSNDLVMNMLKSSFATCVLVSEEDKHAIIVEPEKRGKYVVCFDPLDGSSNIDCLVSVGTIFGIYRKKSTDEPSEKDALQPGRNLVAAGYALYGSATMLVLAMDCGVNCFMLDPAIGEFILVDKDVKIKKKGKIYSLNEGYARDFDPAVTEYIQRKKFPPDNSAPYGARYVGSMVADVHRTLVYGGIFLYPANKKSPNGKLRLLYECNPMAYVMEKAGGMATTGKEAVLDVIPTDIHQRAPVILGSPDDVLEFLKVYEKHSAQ
Kind of series: Inhibition of Human Liver FBPase. Format: biochemical. The settings on record: read-out: IC50 (hlFBPase). How it is done:
[…] […] Enzymatic activity was measured spectrophotometrically in reactions that coupled the formation of product (fructose 6-phosphate) to the reduction of dimethylthiazoldiphenyltetrazolium bromide (MTT) via NADP^+ and phenazine methosulfate (PMS), using phosphoglucose isomerase and glucose 6-phosphate dehydrogenase as the coupling enzymes. […] Inhibitor concentrations were varied from 0.01 μM to 10 μM. Reactions were started by the addition of 0.002 units of pure hlFBPase, and were monitored for 7 minutes at 590 nm in a Molecular Devices Plate Reader (37° C.).
`Nc1nc(-c2cccc(P(=O)(O)O)n2)cs1` [Compound 3.67, 2-Amino-4-[2-(6-phosphono)pyridyl]thiazole hydrobromide]: the IC50 is 2000 nM.

Take `CC(C)Cc1[se]c(N)nc1-c1ccc(P(=O)(O)O)o1` [Compound 3.70, 2-Amino-5-isobutyl-4-[2-(5-phosphono)furanyl]selenazole]: the IC50 came to 40 nM.

Turning to `CCOC(=O)c1oc(N)nc1-c1ccc(P(=O)(O)O)o1` [Compound 10.27, 2-Amino-5-ethoxycarbonyl-4-[2-(5-phosphono)furanyl]oxazole], the IC50 is 38 nM.

In the case of `CCCSc1oc(N)nc1-c1ccc(P(=O)(O)O)o1` [Compound 10.43, 2-Amino-5-propylthio-4-[2-(5-phosphono)furanyl]oxazole], the IC50 worked out at 70 nM.

For `CCCc1ccc(N)nc1-c1ccc(P(=O)(O)O)o1` [Compound 15.14, 6-Amino-3-propyl-2-[2-(5-phosphono)furanyl]pyridine], the IC50 was 32 nM.

As to `Nc1ccc(C2CC2)c(-c2ccc(P(=O)(O)O)o2)n1` [Compound 15.20, 2-Amino-5-cyclopropyl-6-[2-(5-phosphono)furanyl]pyridine], the IC50 worked out at 40 nM.

Regarding `CSc1nccnc1-c1ccc(P(=O)(O)O)o1` [Compound 17.6, 3-Methylthio-2-[2-(5-phosphono)furanyl]pyrazine], the IC50 is 620 nM.

With `Nc1nc(-c2ccccc2)nc(-c2ccc(P(=O)(O)O)o2)n1` [Compound 17.11, 2-Amino-4-phenyl-6-[2-(5-phosphono)furanyl]triazine], the IC50 was 780 nM.

`Nc1nc(C(=O)NCP(=O)(O)O)c(Br)s1` [Compound 18.11, 2-Amino-5-bromo-4-[(N-phosphonomethyl)carbamoyl]thiazole]: the half-maximal inhibitory concentration (IC50) came out at 330 nM.

Regarding `Nc1nc(NC(=O)CP(=O)(O)O)ccc1Br` [Compound 18.25, 2-Amino-3-bromo-6-[(N-phosphonoacetyl)amino]pyridine], the IC50 was 2000 nM.

Take `CC(C)Cc1cn(C)nc1-c1ccc(P(=O)(O)O)o1` [Compound 19.2, 1-methyl-4-isobutyl-3-[2-(5-phosphono)furanyl]pyrazole]: the IC50 is 400 nM.

`CSc1sc(N)nc1CCC(F)(F)P(=O)(O)O` [Compound 22.2, 2-Amino-5-methylthio-4-[1-(3-phosphono-3,3-difluoro)propyl]thiazole]: the IC50 amounted to 2800 nM.

The target of a further series is T2, rat liver FBPase (Rattus norvegicus, UniProt P19112).
T2 construct: made in house; host or cells: E. coli BL21
T2 sequence (P19112 2-363 limits assumed): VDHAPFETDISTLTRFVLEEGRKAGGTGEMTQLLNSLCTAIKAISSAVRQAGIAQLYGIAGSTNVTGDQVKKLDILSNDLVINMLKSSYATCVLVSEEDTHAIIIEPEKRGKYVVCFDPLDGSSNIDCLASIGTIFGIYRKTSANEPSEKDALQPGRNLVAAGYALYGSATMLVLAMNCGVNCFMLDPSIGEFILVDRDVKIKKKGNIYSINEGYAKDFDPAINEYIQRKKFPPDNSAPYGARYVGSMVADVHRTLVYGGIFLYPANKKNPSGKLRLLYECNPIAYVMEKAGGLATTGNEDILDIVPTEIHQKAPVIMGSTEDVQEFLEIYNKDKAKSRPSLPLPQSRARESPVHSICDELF
Put plainly: Inhibition of Rat Liver FBPase. Format: biochemical. The conditions noted are these: read-out: IC50 (rlFBPase). How it is done: E. coli strain BL21 transformed with a human liver FBPase-encoding plasmid was obtained from Dr. M. R. El-Maghrabi at the State University of New York at Stony Brook. The enzyme was typically purified from 10 liters of recombinant E. coli culture as described (M. Gidh-Jain et al., 1994, The Journal of Biological Chemistry 269, pp 27732-27738). Enzymatic activity was measured spectrophotometrically in reactions that coupled the formation of product (fructose 6-phosphate) to the reduction of dimethylthiazoldiphenyltetrazolium bromide (MTT) via NADP^+ and phenazine methosulfate (PMS), using phosphoglucose isomerase and glucose 6-phosphate dehydrogenase as the coupling enzymes. Reaction mixtures (200 μl) were made up in 96-well microtitre plates, and consisted of 50 mM Tris-HCl, pH 7.4, 100 mM KCl, 5 mM EGTA, 2 mM MgCl2, 0.2 mM NADP, 1 mg/ml BSA, 1 mM MTT, 0.6 mM PMS, 1 unit/ml phosphoglucose isomerase, 2 units/ml glucose 6-phosphate dehydrogenase, and 0.150 mM substrate (fructose 1,6-bisphosphate). Inhibitor concentrations were varied from 0.01 μM to 10 μM. Reactions were started by the addition of 0.002 units of pure hlFBPase, and were monitored for 7 minutes at 590 nm in a Molecular Devices Plate Reader (37° C.).
E. coli strain BL21 transformed with a rat liver FBPase-encoding plasmid was obtained from Dr. M. R. El-Maghrabi at the State University of New York at Stony Brook. Recombinant FBPase was purified as described (El-Maghrabi, M. R., and Pilkis, S. J. (1991) BioChem. Biophys. Res. Commun. 176, 137-144) The enzyme assay was identical to that described above for human liver FBPase.
Take `Nc1ncnc2c1ncn2[C@@H]1O[C@H](COP(=O)(O)O)[C@@H](O)[C@H]1O` [AMP, reference compound]: the IC50 was determined as 20000 nM.

In the case of `CC(C)Cc1sc(N)nc1-c1ccc(P(=O)(O)O)o1` [Compound 3.1, 2-amino-5-isobutyl-4-[2-(5-phosphono)furanyl]thiazole], the 50% inhibitory concentration (IC50) turned out to be 180 nM.

In the case of `CCOC(=O)c1sc(N)nc1-c1ccc(P(=O)(O)O)o1` [Compound 3.25, 2-Amino-5-ethoxycarbonyl-4-[2-(5-phosphono)furanyl]thiazole], the IC50 stood at 500 nM.

For the molecule `CC(C)Cc1[se]c(N)nc1-c1ccc(P(=O)(O)O)o1` [Compound 3.70, 2-Amino-5-isobutyl-4-[2-(5-phosphono)furanyl]selenazole], the IC50 was determined as 150 nM.

Regarding `Nc1nc(-c2ccc(P(=O)(O)O)o2)c(-c2cccs2)s1` [Compound 6.3], the IC50 was determined as 500 nM.

As to `CCOC(=O)c1oc(N)nc1-c1ccc(P(=O)(O)O)o1` [Compound 10.27, 2-Amino-5-ethoxycarbonyl-4-[2-(5-phosphono)furanyl]oxazole], the IC50 stood at 2900 nM.

Take `CCCSc1oc(N)nc1-c1ccc(P(=O)(O)O)o1` [Compound 10.43, 2-Amino-5-propylthio-4-[2-(5-phosphono)furanyl]oxazole]: the IC50 is 800 nM.

With `Nc1ccc(Br)c(-c2ccc(P(=O)(O)O)o2)n1` [Compound 15.2, 6-Amino-3-bromo-2-[2-(5-phosphono)furanyl]pyridine], the IC50 worked out at 1300 nM.

As for `CCc1cc(CC)c(-c2ccc(P(=O)(O)O)o2)nc1N` [Compound 15.4, 2-amino-3,5-diethyl-6-[2-(5-phosphono)furanyl]pyridine], the IC50 was found to be 4100 nM.

For the molecule `O=P(O)(O)c1ccc(-c2ccccn2)o1` [Compound 15.6, 2-[2-(5-Phosphono)furanyl]pyridine], the 50% inhibitory concentration (IC50) amounted to 7000 nM.

As to `CCCc1ccc(N)nc1-c1ccc(P(=O)(O)O)o1` [Compound 15.14, 6-Amino-3-propyl-2-[2-(5-phosphono)furanyl]pyridine], the IC50 was 680 nM.

Regarding `Nc1ccc(C2CC2)c(-c2ccc(P(=O)(O)O)o2)n1` [Compound 15.20, 2-Amino-5-cyclopropyl-6-[2-(5-phosphono)furanyl]pyridine], the IC50 stood at 600 nM.

For `CCc1cc(F)c(N)c2nc(-c3ccc(P(=O)(O)O)o3)n(CC(C)C)c12` [Compound A, 4-Amino-5-fluoro-7-ethyl-1-isobutyl-2-(2-phosphono-5-furanyl)benzimidazole], the IC50 is 550 nM.

Regarding `Nc1c(F)ccc2c1nc(-c1ccc(P(=O)(O)O)o1)n2CC1CC1` [Compound B, 4-Amino-5-fluoro-1-cyclopropylmethyl-2-(2-phosphono-5-furanyl)benzimidazole], the IC50 is 2100 nM.

Test system in the next series: not given
Test: not given
Conditions: not given
`CCc1cc(CC)c(-c2ccc(P(=O)(O)O)o2)nc1N` [Compound 15.4, 2-amino-3,5-diethyl-6-[2-(5-phosphono)furanyl]pyridine]: the melting point lay in the range of 217 to 218 °C.

For the molecule `Cc1c(Cl)c(OCP(=O)(O)O)c2nc(N)sc2c1Cl` [Compound 29.5, 2-Amino-5,7-dichloro-6-methyl-4-phosphonomethoxybenzothiazole], the melting point was > 230 °C (dec.).

For the molecule `Nc1nc2c(OCP(=O)(O)O)cc(C(=O)O)cc2s1` [Compound 29.6, 2-Amino-4-phosphonomethoxy-6-carboxybenzothiazole], the melting point was > 230 °C (dec.).

As to `Nc1nc2c(OCP(=O)(O)O)cc(Cl)cc2s1` [Compound 31.3, 2-Amino-6-chloro-4-phosphonomethoxybenzothiazole], the melting point is > 250 °C (dec.).

With `Nc1nc2c(OCP(=O)(O)O)cc(Cl)c(Cl)c2s1` [Compound 31.4, 2-Amino-6,7-dichloro-4-phosphonomethoxybenzothiazole], the melting point is > 250 °C (dec.).

Regarding `Cc1cc(OCP(=O)(O)O)c2nc(N)sc2c1` [Compound 32.2, 2-Amino-6-methyl-4-phosphonomethoxybenzothiazole], the melting point was > 250 °C (dec.).

Consider `N#Cc1ccc(OCP(=O)(O)O)c2nc(N)sc12` [Compound 32.3, 2-Amino-7-cyano-4-phosphonomethoxybenzothiazole], for which the melting point is > 250 °C (dec.).

As to `CCc1cc(OCP(=O)(O)O)c2nc(N)sc2c1F` [Compound 34.5, 2-Amino-6-ethyl-7-fluoro-4-phosphonomethoxybenzothiazole], the melting point is > 250 °C (dec.).

As for `Cc1c(Cl)cc(OCP(=O)(O)O)c2nc(Cl)sc12` [Compound 37.2, 2-Chloro-4-phosphonomethoxy-6-chloro-7-methyl benzothiazole], the melting point is > 250 °C (dec.).

In the case of `CCCCCCc1c(C)cc(OCP(=O)(O)O)c2nc(N)sc12` [Compound 40.2, 2-Amino-6-methyl-7-(n-hexyl)-4-phosphonomethoxybenzothiazole], the melting point was > 250 °C (dec.).

`CCc1cc(OCP(=O)(O)O)c2nc(N)sc2c1` [Compound 42.1, 2-Amino-6-ethyl-4-phosphonomethoxybenzothiazole]: the melting point is > 220 °C (dec.).

Take `CCCOc1c(SC#N)cc(OCP(=O)(O)O)c2nc(N)sc12` [Compound 44.1, 2-Amino-7-propyloxy-6-thiocyano-4-phosphonomethoxy benzothiazole]: the melting point is > 220 °C (dec.).

On to `COc1cc(OCP(=O)(O)O)c2nc(N)sc2c1` [Compound 45.1, 2-Amino-6-methoxy-4-phosphonomethoxybenzothiazole], for which the melting point was > 230 °C (dec.).

With `Cc1cc(OCP(=O)(O)O)c2nc(N)sc2c1Br` [Compound 47.1, 2-Amino-7-bromo-6-methyl-4-phosphonomethoxybenzothiazole], the melting point was > 250 °C (dec.).

With `Cc1cc(OCP(=O)(O)O)c2nc(N)sc2c1Cl` [Compound 48.2, 2-Amino-7-chloro-6-methyl-4-phosphonomethoxybenzothiazole], the melting point is > 250 °C (dec.).

Broadly, the IC50 is the concentration that inhibits the measured activity by half. By melting point is commonly meant the temperature of the solid-liquid transition.
